Results published in the supplement of paper PMC13207355.
Where a name gives a salt, the structure may show the parent alone.

Legend:
Settings in all cases: exposure time: 72 h
[1] = system: FT3469 (normal neural stem cell line); assay: surviving fraction (nuclei count normalised to DMSO); higher = more cells surviving (less toxic)
[2] = system: E57 (patient-derived glioblastoma stem cells of mesenchymal subtype); assay: as above
[3] = system: E21 (patient-derived glioblastoma stem cells of mesenchymal subtype); assay: as above
[4] = system: E31 (patient-derived glioblastoma stem cells of proneural subtype); assay: as above
[5] = system: E13 (patient-derived glioblastoma stem cells of classical subtype); assay: as above
[6] = system: E34 (patient-derived glioblastoma stem cells of proneural subtype); assay: as above
[7] = system: E28 (patient-derived glioblastoma stem cells of classical subtype); assay: as above
[8] = system: FT3469; assay: phenotypic distance (Euclidean, principal components) from DMSO controls (arbitrary units); higher = stronger morphological change
[9] = system: E57; assay: as above
[10] = system: E21; assay: as above
[11] = system: E31; assay: as above
[12] = system: E13; assay: as above
[13] = system: E34; assay: as above
[14] = system: E28; assay: as above
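Wherever phenotypic distance (Euclidean, principal components) from DMSO controls is given: cell Painting imaging in 384-well plates, CellProfiler features reduced to at least 20 principal components, Euclidean distance versus same-plate DMSO vehicle wells (0.1% v/v), median over six images per well.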
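Wherever surviving fraction (nuclei count normalised to DMSO) is given: nuclei counted by high-content imaging of Hoechst-stained cells in laminin-coated 384-well plates, relative to 0.1% DMSO vehicle wells, with staurosporine as cell-death control.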

N=c1ccn2c(n1)O[C@H]1[C@H](O)[C@@H](CO)O[C@H]12 [Ancitabine hydrochloride]
Settings | phenotypic distance | surviving fraction
[1], 4.1 nM | – | 0.699
[1], 12.3 nM | – | 0.86
[1], 37 nM | – | 0.964
[1], 111.1 nM | – | 0.691
[1], 333.3 nM | – | 0.668
[1], 1000 nM | – | 0.679
[1], 3000 nM | – | 0.682
[2], 4.1 nM | – | 0.931
[2], 12.3 nM | – | 0.805
[2], 37 nM | – | 0.73
[2], 111.1 nM | – | 0.655
[2], 333.3 nM | – | 0.409
[2], 1000 nM | – | 0.321
[2], 3000 nM | – | 0.212
[3], 4.1 nM | – | 0.896
[3], 12.3 nM | – | 0.889
[3], 37 nM | – | 0.909
[3], 111.1 nM | – | 0.832
[3], 333.3 nM | – | 0.693
[3], 1000 nM | – | 0.636
[3], 3000 nM | – | 0.422
[4], 4.1 nM | – | 0.978
[4], 12.3 nM | – | 0.749
[4], 37 nM | – | 0.721
[4], 111.1 nM | – | 0.594
[4], 333.3 nM | – | 0.669
[4], 1000 nM | – | 0.394
[4], 3000 nM | – | 0.176
[5], 4.1 nM | – | 0.857
[5], 12.3 nM | – | 0.724
[5], 37 nM | – | 0.884
[5], 111.1 nM | – | 0.812
[5], 333.3 nM | – | 0.716
[5], 1000 nM | – | 0.67
[5], 3000 nM | – | 0.49
[6], 4.1 nM | – | 0.976
[6], 12.3 nM | – | 1.09
[6], 37 nM | – | 0.963
[6], 111.1 nM | – | 0.86
[6], 333.3 nM | – | 0.71
[6], 1000 nM | – | 0.689
[6], 3000 nM | – | 0.593
[7], 4.1 nM | – | 0.837
[7], 12.3 nM | – | 1.18
[7], 37 nM | – | 0.826
[7], 111.1 nM | – | 0.886
[7], 333.3 nM | – | 0.687
[7], 1000 nM | – | 0.653
[7], 3000 nM | – | 0.482
[8], 4.1 nM | 1.34 | –
[8], 12.3 nM | 0.713 | –
[8], 37 nM | 1.46 | –
[8], 111.1 nM | 1.24 | –
[8], 333.3 nM | 3.06 | –
[8], 1000 nM | 2.47 | –
[8], 3000 nM | 2.06 | –
[9], 4.1 nM | 3.74 | –
[9], 12.3 nM | 1.61 | –
[9], 37 nM | 2.27 | –
[9], 111.1 nM | 3.75 | –
[9], 333.3 nM | 6.65 | –
[9], 1000 nM | 7.84 | –
[9], 3000 nM | 8.89 | –
[10], 4.1 nM | 1.35 | –
[10], 12.3 nM | 1.44 | –
[10], 37 nM | 1.87 | –
[10], 111.1 nM | 2.14 | –
[10], 333.3 nM | 3.95 | –
[10], 1000 nM | 5.57 | –
[10], 3000 nM | 6.36 | –
[11], 4.1 nM | 1.4 | –
[11], 12.3 nM | 1.46 | –
[11], 37 nM | 1.63 | –
[11], 111.1 nM | 2.22 | –
[11], 333.3 nM | 2.92 | –
[11], 1000 nM | 3.39 | –
[11], 3000 nM | 3.87 | –
[12], 4.1 nM | 1.7 | –
[12], 12.3 nM | 1.23 | –
[12], 37 nM | 1.32 | –
[12], 111.1 nM | 1.29 | –
[12], 333.3 nM | 2.15 | –
[12], 1000 nM | 3.33 | –
[12], 3000 nM | 5.43 | –
[13], 4.1 nM | 1.44 | –
[13], 12.3 nM | 0.954 | –
[13], 37 nM | 1.24 | –
[13], 111.1 nM | 1.69 | –
[13], 333.3 nM | 2.92 | –
[13], 1000 nM | 3.78 | –
[13], 3000 nM | 5.02 | –
[14], 4.1 nM | 2.22 | –
[14], 12.3 nM | 2 | –
[14], 37 nM | 1.29 | –
[14], 111.1 nM | 1.66 | –
[14], 333.3 nM | 1.88 | –
[14], 1000 nM | 2.56 | –
[14], 3000 nM | 2.87 | –

CC(C)C(=O)OCC(=O)[C@@]12O[C@H](C3CCCCC3)O[C@@H]1C[C@H]1[C@@H]3CCC4=CC(=O)C=C[C@]4(C)[C@H]3[C@@H](O)C[C@@]12C [Ciclesonide]
Settings | phenotypic distance | surviving fraction
[1], 4.1 nM | – | 1.1
[1], 12.3 nM | – | 1.38
[1], 37 nM | – | 1.15
[1], 111.1 nM | – | 1.04
[1], 333.3 nM | – | 1.03
[1], 1000 nM | – | 1.1
[1], 3000 nM | – | 0.803
[2], 4.1 nM | – | 1.08
[2], 12.3 nM | – | 1.18
[2], 37 nM | – | 1.1
[2], 111.1 nM | – | 1.32
[2], 333.3 nM | – | 1.16
[2], 1000 nM | – | 1.19
[2], 3000 nM | – | 0.756
[3], 4.1 nM | – | 1.24
[3], 12.3 nM | – | 1.23
[3], 37 nM | – | 1.07
[3], 111.1 nM | – | 1.17
[3], 333.3 nM | – | 1.19
[3], 1000 nM | – | 1.24
[3], 3000 nM | – | 0.893
[4], 4.1 nM | – | 1.24
[4], 12.3 nM | – | 1.11
[4], 37 nM | – | 1.33
[4], 111.1 nM | – | 1.47
[4], 333.3 nM | – | 1.25
[4], 1000 nM | – | 1.27
[4], 3000 nM | – | 0.766
[5], 4.1 nM | – | 0.929
[5], 12.3 nM | – | 0.899
[5], 37 nM | – | 0.833
[5], 111.1 nM | – | 0.908
[5], 333.3 nM | – | 0.889
[5], 1000 nM | – | 0.796
[5], 3000 nM | – | 0.233
[6], 4.1 nM | – | 1.04
[6], 12.3 nM | – | 0.897
[6], 37 nM | – | 1.13
[6], 111.1 nM | – | 1.02
[6], 333.3 nM | – | 1.08
[6], 1000 nM | – | 1.06
[6], 3000 nM | – | 0.589
[7], 4.1 nM | – | 1.11
[7], 12.3 nM | – | 1
[7], 37 nM | – | 1.26
[7], 111.1 nM | – | 1.07
[7], 333.3 nM | – | 0.894
[7], 1000 nM | – | 1.05
[7], 3000 nM | – | 0.615
[8], 4.1 nM | 1.45 | –
[8], 12.3 nM | 1.86 | –
[8], 37 nM | 1.15 | –
[8], 111.1 nM | 1.37 | –
[8], 333.3 nM | 1.4 | –
[8], 1000 nM | 0.997 | –
[8], 3000 nM | 0.762 | –
[9], 4.1 nM | 1.77 | –
[9], 12.3 nM | 2.02 | –
[9], 37 nM | 2.36 | –
[9], 111.1 nM | 2.51 | –
[9], 333.3 nM | 2.31 | –
[9], 1000 nM | 2.44 | –
[9], 3000 nM | 2.49 | –
[10], 4.1 nM | 1.83 | –
[10], 12.3 nM | 2.04 | –
[10], 37 nM | 1.74 | –
[10], 111.1 nM | 2.02 | –
[10], 333.3 nM | 2.07 | –
[10], 1000 nM | 1.89 | –
[10], 3000 nM | 2.4 | –
[11], 4.1 nM | 2.4 | –
[11], 12.3 nM | 2.62 | –
[11], 37 nM | 3 | –
[11], 111.1 nM | 3.03 | –
[11], 333.3 nM | 3.06 | –
[11], 1000 nM | 3.27 | –
[11], 3000 nM | 2.27 | –
[12], 4.1 nM | 0.991 | –
[12], 12.3 nM | 0.745 | –
[12], 37 nM | 1.05 | –
[12], 111.1 nM | 1.04 | –
[12], 333.3 nM | 0.74 | –
[12], 1000 nM | 1.02 | –
[12], 3000 nM | 3.25 | –
[13], 4.1 nM | 0.88 | –
[13], 12.3 nM | 0.851 | –
[13], 37 nM | 1.45 | –
[13], 111.1 nM | 1.77 | –
[13], 333.3 nM | 1.12 | –
[13], 1000 nM | 0.771 | –
[13], 3000 nM | 1.4 | –
[14], 4.1 nM | 1.16 | –
[14], 12.3 nM | 0.863 | –
[14], 37 nM | 1.07 | –
[14], 111.1 nM | 0.708 | –
[14], 333.3 nM | 1 | –
[14], 1000 nM | 0.827 | –
[14], 3000 nM | 2.3 | –
